Data from patent US7129271B2, “Compounds for pest control and methods for their use” (The United States of America as represented by the …, priority 2000, dated 2006).
Converted amounts (≈) assume the structure as drawn. Read-outs that look alike come from different tables or passages of the source.

Columns and labels:
[1] = system: I. scapularis nymphs, X. cheopis adults, and Ae. aegypti adults; assay: Initial screening against all three arthropods (Example 9); type: in vivo; details: 24 hours exposure; ticks, fleas, mosquitoes
Description: Valencene-13-aldehyde was prepared by oxidation of valencene with SeO2. […] Commercial samples of nootkatone for comparison were obtained from Bedoukian Research, Inc., Danbury, Conn. (semi-synthetic crystalline) and Frutarom, Inc. N.J. (from grapefruit oil). […] The compounds identified by an asterisk—nos.

[2] = system: adult Xenopsylla cheopis fleas; assay: Treated-vial biocidal screening, residual challenge (Example 2); type: in vivo; details: treated vials sat 5 wk; arthropods added for final 24 h
Description: (§1) Samples of the compounds listed below Were obtained from Dr. Karchesy, a co-inventor, and screened for biocidal activities against nymphal Ixodes scapularis. In this example, 2% acetone solutions (wt./vol.) of the compounds were applied to inner surfaces of 2-dram friction cap vials. Vials and caps were treated then allowed to dry for a minimum of 4 hours before placing 10 nymphs in each container. These same vials were used to challenge additional nymphs and adult I. scapularis ticks and adult Xenopsylla cheopis fleas through five weeks to observe any possible residual activity.
(§2) Numbers in parentheses refer to length of treatment in terms of hours (h) or weeks (wk). Data is presented in terms of number killed/number tested. For test periods longer than 24 hours, the treated vials were allowed to sit for the stated period after drying (72 h, 4 wk, or 5 wk) and each group of arthropods was added to the vials for the final 24 h of the test period.

[3] = system: adult I. scapularis ticks; assay: as above; type: in vivo, Ixodes scapularis; details: treated vials sat 4 wk; arthropods added for final 24 h
Description: as §1, §2

[4] = system: nymphal Ixodes scapularis; assay: Treated-vial biocidal screening, 2% acetone solutions (Example 2); type: in vivo; details: for I. scapularis nymphs (24 h), number killed/number tested: 2% acetone solution (wt./vol.) dried in vials; for I. scapularis nymphs (72 h), number killed/number tested: treated vials sat 72 h, arthropods added for final 24 h
Description: as §1, §2

[5] = system: Ae. aegypti adults; assay: Mosquito bottle bioassay (Example 9); type: in vivo; details: 24 h exposure, 95% CI in parentheses
Description: Mosquito Colonies. Aedes aegypti adult mosquitoes were obtained from an existing colony at the Centers for Disease Control and Prevention (CDC), Division of Vector-Borne Infectious Diseases (DVBID), Fort Collins, Colo. This colony has been maintained for over fifteen years with no known history of exposure to pesticides. Mosquitoes were reared at 28° C., 85% RH, and a 14:10 h (light:dark) cycle. Larvae were grown in de-ionized water and fed ground liver powder solution ad libitum. Fourth instars were removed and placed in emergence cages, and adults were fed a 2% sucrose solution until assayed. Adults were exposed to test products at 4–7 d after emergence.
Mosquit Bioassay. Adult mosquitoes were tested using the bottle bioassay method of Brogden, W. G., and McAllister, J. C., J. Am. Mosq. Control Assoc. 14:159–64 (1998), with minor modifications. Natural product extracts were two-fold serially diluted for a total of 8 concentrations ranging from 0.002% to 0.25% in 1.5 ml of acetone. Individual dilutions were added to 250 ml Wheaton glass bottles and capped. Bottles were manipulated to evenly coat all inner surfaces. The caps were removed and bottles were allowed to air-dry overnight. Once bottles were completely dry, 10–50 adult mosquitoes were aspirated into the bottles. Mosquitoes were held in the bottles for 24 h at 23° C. and 85% RH. Morbidity and mortality were recorded at 15, 30, 45, and 60 min and 24 hour intervals. One bottle for each replicate was treated with acetone only and served as a control. The dose-mortality data was evaluated with probit analysis, using the LdP Line software, to determine LC50 and LC90 values.

[6] = system: Aedes aegypti adults; assay: Treated-vial bioassay on mosquito (Example 3); type: in vivo; details: 24 hours challenge
Description: as §1
Using a bioassay method similar to that presented in Example #2, the susceptibility of Aedes aegypti adults to the five compounds presented in Example #2 at 24 hours challenge was determined to be 100% mortality except for nootkatin (20% mortality).

[7] = system: ticks, fleas, and mosquitos; assay: Bioassay of Example 2 on ticks, fleas and mosquitos (Examples 4 and 6); type: in vivo
Description: as §1
Nootkatol was tested using the bioassay presented in Example 2.
Two nootkatone samples were compared to nootkatone isolated from Alaska yellow cedar using the method presented in Example 1. The first sample was a natural extract of nootkatone taken from grapefruit oil purchased commercially. The second sample was a synthetically produced nootkatone purchased commercially.
Both samples were compared to the nootkatone originating from Alaska yellow cedar in terms of their biocidal activities. Using a bioassay method similar to that presented in Example 2, no differences were discernible among the nootkatone samples in terms of their biocidal effect on ticks, fleas and mosquitos.

[8] = system: I. scapularis nymphs; assay: Tick bioassay, modified disposable pipette method, treated vials (Example 9); type: in vivo, Ixodes scapularis; details: 24 h exposure, 95% CI in parentheses
Description: Tick Colonies. […] There was no known pesticide used at this location. Ticks were maintained at 21° C., 90% RH, and received a 16:8 h (light:dark) cycle as described in […]. Med. […] Tick and Flea Bioassays. […] A control treated with acetone only was run with each series. Tick and flea susceptibility was evaluated using a modified disposable pipette method. See, Barnard, D. R., et al., J. Econ. […] Three to 4 holes were made in the plastic cap to allow for air exchange. Nymphal ticks and adult fleas were then placed directly into the vials using forceps. Vials containing ticks or fleas were placed in desiccators for 24 h at 21° C. and 90% RH. […] For each time point, if ticks were incapable of movement, maintaining normal posture, leg coordination, ability to right themselves, or any signs of life, they were considered moribund or dead.

[9] = system: X. cheopis adults; assay: Flea bioassay, treated vials (Example 9); type: in vivo; details: 24 h exposure, 95% CI in parentheses
Description: Flea Colonies. Adult X. cheopis fleas (1–3 wk old) were obtained from a colony founded more than eight years ago using adults received from Tom Schwan, Rocky Mountain Laboratories, Hamilton, Mont. The area from which these original adult fleas were obtained, and the resulting colony, have no known histories of pesticide exposure.
Tick and Flea Bioassays. Concentrations of the compounds were prepared by 2-fold serial dilutions of a 0.5% (wt:vol) solution of the extracts in acetone. […] A control treated with acetone only was run with each series. Tick and flea susceptibility was evaluated using a modified disposable pipette method. See, Barnard, D. R., et al., J. Econ. Entomol.
The inner surface of 2-dram friction cap vials were treated with the compound/acetone solution, or acetone only as a control, and left to air-dry overnight. Three to 4 holes were made in the plastic cap to allow for air exchange. Nymphal ticks and adult fleas were then placed directly into the vials using forceps. Vials containing ticks or fleas were placed in desiccators for 24 h at 21° C. and 90% RH. Morbidity and mortality was recorded at 1, 2, 4, 8, and 24 h after initial exposure.

[10] = system: Aedes aegypti; assay: Mosquito susceptibility (Example 8); details: in vivo
[11] = system: Culex p. pipiens; assay: Mosquito susceptibility, serial dilutions (Example 8); details: in vivo
[12] = system: ticks, fleas, formicids and termites; assay: Persistence of biocidal activity, vials treated with 2% solutions (Example 5); type: in vivo
Description: as §1
Persistence of biocidal activity was determined for nootkatone and valencene-11,12-epoxide by using the vials as treated with the 2% solutions of Example 2. […] At 11 weeks, the biocidal activity began to dissipate below the 100% mortality level.

[13] = system: nymphal I. scapularis; assay: Baseline dose-mortality, method of Maupin and Piesman 1994 (Example 7); type: in vivo; details: nymphal ticks
Source text: Baseline dose-mortalities were established for nymphal I. scapularis for nootkatone and valencene-11,12-epoxide using the method described in Maupin, G. O., and Piesman, J., J. Med. Entomol., 31:319–21 (1994).
A comparison of relative potency was made with published data for carbaryl and permethrin (Maupin and Piesman, 1994) and Alaska yellow cedar essential oil (Panella et al., J. Med. Entomol. 34:340–45 (1997) is presented in Table 6.

CC1=CCC(O)(C(C)C)CC1 (centres unmarked) [Compound 2, Terpinen-4-ol]
pesticidal activity in initial screening [1]: no pesticidal activity

COc1cc(C(C)C)ccc1C [Compound 3, Methyl carvacrol]
pesticidal activity in initial screening [1]: no pesticidal activity

CC(C)=CCc1ccc(O)c(=O)cc1C(C)C [Compound 11, Nootkatin]
X. cheopis adults (5 wk), number killed/number tested [2]: 0/5 | I. scapularis adults (4 wk), number killed/number tested [3]: 0/5 | I. scapularis nymphs (24 h), number killed/number tested [4]: 1/10 | I. scapularis nymphs (72 h), number killed/number tested [4]: 0/5 | LC50 [5]: 0.852 percent concentration, wt:vol | LC90 [5]: 7.869 percent concentration, wt:vol | mortality [6]: 20%

C=C(C)[C@@H]1CCC2=C[C@@H](O)C[C@@H](C)[C@]2(C)C1 [Compound 12, Nootkatol]
biocidal activity compared with nootkatene [7]: essentially equivalent to the activity of nootkatene | LC50 [8]: 0.023 (0.017–0.03) percent concentration, wt:vol | LC90 [8]: 0.059 (0.042–0.116) percent concentration, wt:vol | LC50 ([8]; listed as compound 12): 0.023 percent concentration, wt:vol | LC50 [5]: 0.004 (0.0032–0.0048) percent concentration, wt:vol | LC90 [5]: 0.01 (0.008–0.014) percent concentration, wt:vol | LC50 ([5]; listed as compound 12): 0.004 percent concentration, wt:vol | LC50 [9]: 0.024 (0.018–0.034) percent concentration, wt:vol | LC90 [9]: 0.1 (0.065–0.196) percent concentration, wt:vol | LC50 ([9]; listed as compound 12): 0.024 percent concentration, wt:vol

C[C@@H]1CCC=C2CCC(C3(C)CO3)C[C@]21C (some centres unmarked) [Compound 13, valencene-11,12-epoxide]
X. cheopis adults (5 wk), number killed/number tested [2]: 5/5 | A. aegypti LD50 [10]: <4.5 × 10^−3 | I. scapularis adults (4 wk), number killed/number tested [3]: 5/5 | C. pipiens LD50 [11]: <4.5 × 10^−3 | mortality rate at the lowest tested dosage [11]: 64% | I. scapularis nymphs (24 h), number killed/number tested [4]: 10/10 | I. scapularis nymphs (72 h), number killed/number tested [4]: 5/5 | mortality ([12]; 24 hour exposure at each test through 10 weeks, each group of arthropods): 100% | time at which biocidal activity began to dissipate below the 100% mortality level ([12]; vials treated with 2% solutions): 11 weeks | LC50 ([5]; Aedes aegypti, 24 h, read-out: LC50): 2.95 mg/mL (≈ 13.4 mM) | EC90 ([5]; Aedes aegypti, 24 h, read-out: LC90 (the source's name)): 19.1 mg/mL (≈ 86.7 mM) | more effective than essential oil of Alaska yellow cedar [13]: about 98% | potency relative to essential oil of Alaska yellow cedar [13]: approximately 50 times
